# Measurements: patent publication US20100311714A1, “1H-IMIDAZO[4,5-c]QUINOLINONE COMPOUNDS” (priority 2009, published 2010)
# Like-named read-outs stand apart in the source and are kept apart here.
# Molecular target: T1, PI3K beta (Homo sapiens, UniProt P42338)
# T1 construct: for the full-length p110-b subunit are generated and fused by overlapping PCR; His tag (C); made in house; host or cells: baculovirus BV949; Tn5 (Trichoplusia ni) or TiniPro insect cells
# Test: PI3K beta kinase assay (Kinase-Glo luminescence)
# Assay type: biochemical
# In short: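 Kinase-Glo luminescence read out ATP left after a 60-min room-temperature reaction, started with ATP (1 μM final) on 25 nM His-tagged p85 iSH2–p110β (BV949) plus 10 μg/mL PI substrate in pH 7.5 Tris buffer. Percent inhibition at eight concentrations was fitted to a four-parameter logistic model for IC50.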
# T1 sequence (P42338 with tags, fused parts or gaps limits assumed): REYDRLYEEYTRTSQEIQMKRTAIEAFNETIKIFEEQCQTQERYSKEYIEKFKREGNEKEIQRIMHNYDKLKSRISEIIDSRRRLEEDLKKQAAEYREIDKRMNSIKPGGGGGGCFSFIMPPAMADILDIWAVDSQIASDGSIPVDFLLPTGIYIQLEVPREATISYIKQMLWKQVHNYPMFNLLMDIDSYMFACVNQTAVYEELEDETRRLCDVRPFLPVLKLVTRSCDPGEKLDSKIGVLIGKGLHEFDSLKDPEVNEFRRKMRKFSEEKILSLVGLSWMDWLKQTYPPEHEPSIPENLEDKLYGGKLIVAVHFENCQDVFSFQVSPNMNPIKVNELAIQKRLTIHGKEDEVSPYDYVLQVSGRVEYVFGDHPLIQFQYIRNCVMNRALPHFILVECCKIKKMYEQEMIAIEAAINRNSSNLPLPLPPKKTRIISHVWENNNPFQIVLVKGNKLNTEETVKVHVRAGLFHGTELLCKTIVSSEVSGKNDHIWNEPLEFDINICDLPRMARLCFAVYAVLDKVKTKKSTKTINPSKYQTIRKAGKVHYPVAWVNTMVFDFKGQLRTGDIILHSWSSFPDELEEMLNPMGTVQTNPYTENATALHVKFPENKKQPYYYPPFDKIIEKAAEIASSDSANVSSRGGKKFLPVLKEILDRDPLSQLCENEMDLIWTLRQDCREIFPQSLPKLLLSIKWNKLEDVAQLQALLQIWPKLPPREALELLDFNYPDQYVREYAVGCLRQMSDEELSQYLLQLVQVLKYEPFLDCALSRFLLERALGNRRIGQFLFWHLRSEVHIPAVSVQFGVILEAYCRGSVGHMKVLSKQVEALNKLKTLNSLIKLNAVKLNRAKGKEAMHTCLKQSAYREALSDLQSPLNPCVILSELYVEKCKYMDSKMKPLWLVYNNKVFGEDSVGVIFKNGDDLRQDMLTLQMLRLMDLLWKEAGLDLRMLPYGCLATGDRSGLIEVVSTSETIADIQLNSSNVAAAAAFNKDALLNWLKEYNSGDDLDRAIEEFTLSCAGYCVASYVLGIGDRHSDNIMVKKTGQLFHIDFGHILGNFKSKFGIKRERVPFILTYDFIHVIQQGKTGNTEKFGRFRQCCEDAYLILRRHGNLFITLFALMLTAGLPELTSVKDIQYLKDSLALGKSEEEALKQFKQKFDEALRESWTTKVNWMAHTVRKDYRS
SMILES,IC50 (read-out: EPK_PI3Kbeta/IC50) [nM],IC50 (read-out: PI3Kbeta/IC50) [nM]
"CNc1ccc(-c2ccc3ncc4c(c3c2)n(-c2ccc(N(C)CCOC)nc2C)c(=O)n4C)cn1 [Example 15.4, 1-{6-[(2-Methoxy-ethyl)-methyl-amino]-2-methyl-pyridin-3-yl}-3-methyl-8-(6-methylamino-pyridin-3-yl)-1,3-dihydro-imidazo[4,5-c]quinolin-2-one]",407,
"COCC(=O)Nc1ccc(-n2c(=O)n(C)c3cnc4ccc(-c5cncc(N)c5)cc4c32)c(C)n1 [Example 20.1, N-{5-[8-(5-Amino-pyridin-3-yl)-3-methyl-2-oxo-2,3-dihydro-imidazo[4,5-c]quinolin-1-yl]-6-methyl-pyridin-2-yl}-2-methoxy-acetamide]",38,
"CCNc1cc(-c2ccc3ncc4c(c3c2)n(-c2ccc(F)nc2C)c(=O)n4C)cnc1CO [Example 7.9, 8-(5-Ethylamino-6-hydroxymethyl-pyridin-3-yl)-1-(6-fluoro-2-methyl-pyridin-3-yl)-3-methyl-1,3-dihydro-imidazo[4,5-c]quinolin-2-one]",69,
"COc1ncccc1-n1c(=O)n(C)c2cnc3ccc(-c4cnc(N)c(C(F)(F)F)c4)cc3c21 [Example 1.3, 8-(6-Amino-5-trifluoromethyl-pyridin-3-yl)-1-(2-methoxy-pyridin-3-yl)-3-methyl-1,3-dihydro-imidazo[4,5-c]quinolin-2-one]",,23
"CCOc1ccc(-c2ccc3ncc4c(c3c2)n(-c2ccc(N(C)C)nc2C)c(=O)n4C)cn1 [Example 19.3, 1-(6-Dimethylamino-2-methyl-pyridin-3-yl)-8-(6-ethoxy-pyridin-3-yl)-3-methyl-1,3-dihydro-imidazo[4,5-c]quinolin-2-one]",1970,
"Cc1nc(N2CC(F)(F)C2)ccc1-n1c(=O)n(C)c2cnc3ccc(-c4cncc(C(C)(C)O)c4)cc3c21 [Example 24.2, 1-[6-(3,3-Difluoro-azetidin-1-yl)-2-methyl-pyridin-3-yl]-8-[5-(1-hydroxy-1-methyl-ethyl)-pyridin-3-yl]-3-methyl-1,3-dihydro-imidazo[4,5-c]quinolin-2-one]",19,
"Cc1nc(N2CCC(O)C2)ccc1-n1c(=O)n(C)c2cnc3ccc(-c4cncc(OC(C)C)c4)cc3c21 (centres unmarked) [Example 27.1, 1-[6-(3-Hydroxy-pyrrolidin-1-yl)-2-methyl-pyridin-3-yl]-8-(5-isopropoxy-pyridin-3-yl)-3-methyl-1,3-dihydro-imidazo[4,5-c]quinolin-2-one]",13,
"Cc1cc(F)ncc1-n1c(=O)n(C)c2cnc3ccc(-c4cnc(N)c(C(F)(F)F)c4)cc3c21 [Example 16.1, 8-(6-Amino-5-trifluoromethyl-pyridin-3-yl)-1-(6-fluoro-4-methyl-pyridin-3-yl)-3-methyl-1,3-dihydro-imidazo[4,5-c]quinolin-2-one]",47,
"CNc1ccc(-c2ccc3ncc4c(c3c2)n(-c2ccc(OCCOC)nc2C)c(=O)n4C)cn1 [Example 13.3, 1-[6-(2-Methoxy-ethoxy)-2-methyl-pyridin-3-yl]-3-methyl-8-(6-methylamino-pyridin-3-yl)-1,3-dihydro-imidazo[4,5-c]quinolin-2-one]",502,
"CNc1cc(-c2ccc3ncc4c(c3c2)n(-c2ccc(N(C)C)nc2C)c(=O)n4C)cnc1C [Example 19.2, 1-(6-Dimethylamino-2-methyl-pyridin-3-yl)-3-methyl-8-(6-methyl-5-methylamino-pyridin-3-yl)-1,3-dihydro-imidazo[4,5-c]quinolin-2-one]",68,
"COCCOc1ccc(-n2c(=O)n(C)c3cnc4ccc(-c5cnc(N)c(C(F)(F)F)c5)cc4c32)c(C)n1 [Example 13.2, 8-(6-Amino-5-trifluoromethyl-pyridin-3-yl)-1-[6-(2-methoxy-ethoxy)-2-methyl-pyridin-3-yl]-3-methyl-1,3-dihydro-imidazo[4,5-c]quinolin-2-one]",20,
"CNc1ccc(-c2ccc3ncc4c(c3c2)n(-c2ccc(N3CCCC3)nc2C)c(=O)n4C)cn1 [Example 25.1, 3-Methyl-8-(6-methylamino-pyridin-3-yl)-1-(2-methyl-6-pyrrolidin-1-yl-pyridin-3-yl)-1,3-dihydro-imidazo[4,5-c]quinolin-2-one]",1520,
"COCCOc1ccc(-n2c(=O)n(C)c3cnc4ccc(-c5cnc(COC)c(OC)c5)cc4c32)c(C)n1 [Example 22.3, 1-[6-(2-Methoxy-ethoxy)-2-methyl-pyridin-3-yl]-8-(5-methoxy-6-methoxymethyl-pyridin-3-yl)-3-methyl-1,3-dihydro-imidazo[4,5-c]quinolin-2-one]",122,
"CNc1ncc(-c2ccc3ncc4c(c3c2)n(-c2ccc(F)nc2C)c(=O)n4C)cc1F [Example 7.12, 8-(5-Fluoro-6-methylamino-pyridin-3-yl)-1-(6-fluoro-2-methyl-pyridin-3-yl)-3-methyl-1,3-dihydro-imidazo[4,5-c]quinolin-2-one]",265,
"COc1nc(N2CCNCC2)ccc1-n1c(=O)n(C)c2cnc3ccc(-c4cnc(N(C)C)nc4)cc3c21 [Example 9.4, 8-(2-Dimethylamino-pyrimidin-5-yl)-1-(2-methoxy-6-piperazin-1-yl-pyridin-3-yl)-3-methyl-1,3-dihydro-imidazo[4,5-c]quinolin-2-one]",142,
"CCNc1cc(-c2ccc3ncc4c(c3c2)n(-c2cnc(F)cc2C)c(=O)n4C)cnc1C [Example 16.2, 8-(5-Ethylamino-6-methyl-pyridin-3-yl)-1-(6-fluoro-4-methyl-pyridin-3-yl)-3-methyl-1,3-dihydro-imidazo[4,5-c]quinolin-2-one]",150,
"COCCN(C)c1ccc(-n2c(=O)n(C)c3cnc4ccc(-c5cncc(N)c5)cc4c32)c(C)n1 [Example 15.8, 8-(5-Amino-pyridin-3-yl)-1-{6-[(2-methoxy-ethyl)-methyl-amino]-2-methyl-pyridin-3-yl}-3-methyl-1,3-dihydro-imidazo[4,5-c]quinolin-2-one]",98,
"COc1ccc(-n2c(=O)n(C)c3cnc4ccc(-c5cnc(CO)c(OC)c5)cc4c32)c(C)n1 [Example 11.8, 8-(6-Hydroxymethyl-5-methoxy-pyridin-3-yl)-1-(6-methoxy-2-methyl-pyridin-3-yl)-3-methyl-1,3-dihydro-imidazo[4,5-c]quinolin-2-one]",2590,
"CCOc1ccc(-c2ccc3ncc4c(c3c2)n(-c2cccnc2C)c(=O)n4C)cn1 [Example 2.1, 8-(6-Ethoxy-pyridin-3-yl)-3-methyl-1-(2-methyl-pyridin-3-yl)-1,3-dihydro-imidazo[4,5-c]quinolin-2-one]",,580
"CCOc1ccc(-c2ccc3ncc4c(c3c2)n(-c2ccc(OCCOC)nc2C)c(=O)n4C)cn1 [Example 13.1, 8-(6-Ethoxy-pyridin-3-yl)-1-[6-(2-methoxy-ethoxy)-2-methyl-pyridin-3-yl]-3-methyl-1,3-dihydro-imidazo[4,5-c]quinolin-2-one]",1950,
"COc1ccc(-c2ccc3ncc4c(c3c2)n(-c2cccnc2)c(=O)n4C)cc1OC [Example 5.2, 8-(3,4-Dimethoxy-phenyl)-3-methyl-1-pyridin-3-yl-1,3-dihydro-imidazo[4,5-c]quinolin-2-one]",,295
"CCOc1ccc(-c2ccc3ncc4c(c3c2)n(-c2ccc(C)nc2C)c(=O)n4C)cn1 [Example 14.2, 1-(2,6-Dimethyl-pyridin-3-yl)-8-(6-ethoxy-pyridin-3-yl)-3-methyl-1,3-dihydro-imidazo[4,5-c]quinolin-2-one]",358,
"CCOCc1cc(-c2ccc3ncc4c(c3c2)n(-c2ccc(F)nc2C)c(=O)n4C)cnc1N [Example 7.15, 8-(6-Amino-5-ethoxymethyl-pyridin-3-yl)-1-(6-fluoro-2-methyl-pyridin-3-yl)-3-methyl-1,3-dihydro-imidazo[4,5-c]quinolin-2-one]",194,
"CCOc1ccc(-c2ccc3ncc4c(c3c2)n(-c2ccc(NC(=O)COC)nc2C)c(=O)n4C)cn1 [Example 20.2, N-{5-[8-(6-Ethoxy-pyridin-3-yl)-3-methyl-2-oxo-2,3-dihydro-imidazo[4,5-c]quinolin-1-yl]-6-methyl-pyridin-2-yl}-2-methoxy-acetamide]",891,
"CNc1ccc(-c2ccc3ncc4c(c3c2)n(-c2cccnc2OC)c(=O)n4C)cn1 [Example 1.4, 1-(2-Methoxy-pyridin-3-yl)-3-methyl-8-(6-methylamino-pyridin-3-yl)-1,3-dihydro-imidazo[4,5-c]quinolin-2-one]",,374
"CCNc1cc(-c2ccc3ncc4c(c3c2)n(-c2ccc(C)nc2C)c(=O)n4C)cnc1C [Example 14.6, 1-(2,6-Dimethyl-pyridin-3-yl)-8-(5-ethylamino-6-methyl-pyridin-3-yl)-3-methyl-1,3-dihydro-imidazo[4,5-c]quinolin-2-one]",50,
"CNc1ncc(-c2ccc3ncc4c(c3c2)n(-c2cnc(F)cc2C)c(=O)n4C)cn1 [Example 16.3, 1-(6-Fluoro-4-methyl-pyridin-3-yl)-3-methyl-8-(2-methylamino-pyrimidin-5-yl)-1,3-dihydro-imidazo[4,5-c]quinolin-2-one]",1180,
"CNC(=O)c1cc(-c2ccc3ncc4c(c3c2)n(-c2ccc(F)nc2C)c(=O)n4C)cnc1N [Example 7.14, 2-Amino-5-[1-(6-fluoro-2-methyl-pyridin-3-yl)-3-methyl-2-oxo-2,3-dihydro-1H-imidazo[4,5-c]quinolin-8-yl]-N-methyl-nicotinamide]",14,
"COCCN(C)c1ccc(-n2c(=O)n(C)c3cnc4ccc(-c5cnc6c(ccn6C)c5)cc4c32)c(C)n1 [Example 15.7, 1-{6-[(2-Methoxy-ethyl)-methyl-amino]-2-methyl-pyridin-3-yl}-3-methyl-8-(1-methyl-1H-pyrrolo[2,3-b]pyridin-5-yl)-1,3-dihydro-imidazo[4,5-c]quinolin-2-one]",279,
